Columns and labels:
[1] = Cysteine and histidine challenge of 99mTc complexes (RP-HPLC); format: physicochemical
Description: The stability of complexes 5b and 7b was studied in their reaction mixture and after isolation by HPLC for up to 24 h.
Cysteine and histidine challenge: Histidine (100 µL, 1 × 10^−2 M) or cysteine (100 µL, 1 × 10^−2 M) solution in 0.1 M PBS was mixed with 100 µL (50–120 MBq) of the RP-HPLC isolated ^99mTc complexes in 0.1 M PBS (800 µL). The mixtures were incubated at 37 °C for up to 24 h and analyzed by RP-HPLC at 1, 6, and 24 h intervals.

EGFR = target: T1, EGFR (Homo sapiens, UniProt P00533); assay: Inhibition of EGFR phosphorylation in intact A431 cells (immunoblotting); format: cell-based; conditions: 2 h compound then EGF 20 ng/mL 5 min, Western blot
T1 construct: by immunoblotting in intact A431 cells that overexpress EGFR; endogenous in cells; host or cells: A431 (human epidermoid vulvar carcinoma)
Description: Complex 5a was evaluated for its potency to inhibit EGFR phosphorylation in various concentrations by immunoblotting in intact A431 cells that overexpress EGFR (Figure 3). In addition, the percentage of EGFR phosphorylation was calculated, and a dose-response curve was performed (Figure 4).
Cell line. The in vitro biological studies were established using the human epidermoid vulvar carcinoma A431 cell line, which overexpresses EGFR. Cells were available in our laboratory from previous studies. Cells were maintained in high glucose D-MEM medium with L-glutamine (PAA Laboratories GmbH, Pasching, Austria) and supplemented with 10% fetal bovine serum (PAA Laboratories GmbH) and penicillin/streptomycin (PAA Laboratories GmbH) 100 UI/100 μg per mL, in 5% CO2 incubator at 37 °C.
The inhibition of EGFR phosphorylation was studied as described in the literature. A431 cells (5 × 10^5 cells/well) were seeded in 6-well plates and incubated for 24 h. Then, the medium was replaced with fresh medium without fetal bovine serum. […] Protein band quantification was performed using Image-J software, and the percentage of EGFR phosphorylation inhibition was calculated using GraphPad Prism 9.0 software.

T1 sequence (P00533 25-1210): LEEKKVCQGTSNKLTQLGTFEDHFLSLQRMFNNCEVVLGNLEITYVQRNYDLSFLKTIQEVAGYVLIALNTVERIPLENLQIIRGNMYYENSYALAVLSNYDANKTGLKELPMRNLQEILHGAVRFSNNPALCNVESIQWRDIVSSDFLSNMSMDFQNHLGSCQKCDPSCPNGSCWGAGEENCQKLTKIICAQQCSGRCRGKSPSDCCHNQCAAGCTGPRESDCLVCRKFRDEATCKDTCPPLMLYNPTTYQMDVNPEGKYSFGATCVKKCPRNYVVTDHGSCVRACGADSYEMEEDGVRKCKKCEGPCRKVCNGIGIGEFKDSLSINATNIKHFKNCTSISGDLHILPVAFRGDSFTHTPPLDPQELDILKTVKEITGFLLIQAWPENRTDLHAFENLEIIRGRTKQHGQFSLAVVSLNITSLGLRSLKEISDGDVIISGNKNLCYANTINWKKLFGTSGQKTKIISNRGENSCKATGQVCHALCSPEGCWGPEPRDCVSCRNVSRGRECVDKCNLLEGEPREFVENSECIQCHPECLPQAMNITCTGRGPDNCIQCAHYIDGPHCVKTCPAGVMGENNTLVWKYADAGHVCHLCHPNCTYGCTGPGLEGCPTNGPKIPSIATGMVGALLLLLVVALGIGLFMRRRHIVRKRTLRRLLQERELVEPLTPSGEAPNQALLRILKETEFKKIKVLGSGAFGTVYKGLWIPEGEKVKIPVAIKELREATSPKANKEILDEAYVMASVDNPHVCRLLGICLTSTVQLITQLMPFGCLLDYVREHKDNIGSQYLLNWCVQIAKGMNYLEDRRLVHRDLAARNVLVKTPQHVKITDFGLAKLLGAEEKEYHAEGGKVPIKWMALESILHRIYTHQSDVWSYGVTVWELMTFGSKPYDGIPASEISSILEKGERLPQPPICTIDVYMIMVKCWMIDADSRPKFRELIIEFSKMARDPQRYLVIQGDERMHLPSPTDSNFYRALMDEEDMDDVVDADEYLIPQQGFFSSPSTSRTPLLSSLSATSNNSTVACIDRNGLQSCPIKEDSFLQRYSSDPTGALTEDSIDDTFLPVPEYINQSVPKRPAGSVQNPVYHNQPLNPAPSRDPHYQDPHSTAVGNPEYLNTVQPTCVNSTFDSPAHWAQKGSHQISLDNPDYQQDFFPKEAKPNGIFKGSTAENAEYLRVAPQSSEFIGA

- Stability after incubation with excess of histidine and cysteine ([1]; 24 h, molar ratio 1/1000, HPLC): > 95%
- %RCP in Cysteine for 24 h ([1]; excess cysteine, 37 °C): 99 ± 1%
- %RCP in Histidine for 24 h ([1]; excess histidine, 37 °C): 99 ± 1%
- IC50 (EGFR): 26.1 nM
SMILES: O=C([O-])CN(CCCCCC(=O)Nc1ccc2ncnc(Nc3cccc(Br)c3)c2c1)Cc1ccccn1.[99Tc+].[C-]#[O+].[C-]#[O+].[C-]#[O+] [Compound 5b, fac-[^99mTc(NNO)(CO)3]]
